Test results: US11161850B2, “Fused pyrazine derivatives as A2A / A2B inhibitors” (Incyte Corporation, priority 2018, dated 2021)
Where two headings read alike, the source gives them in different places.

Tests used:
[1] = biological target: Adenosine A2A (Homo sapiens (Human), UniProt P29274); assay: A2A Tag-Lite HTRF assay; format: binding
From the text: Example C. A2A Tag-Lite® HTRF Assay

[2] = biological target: human adenosine A2B receptor (Homo sapiens (Human), UniProt P29275); assay: Adenosine A2B Receptor Cyclic AMP GS Assay; format: cell-based; details: HEK-293 cells expressing human A2B, agonist NECA 12 nM
In short: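 Stably transfected HEK-293 cells were preincubated with compound for 30 min at room temperature, then stimulated with 12 nM NECA for 60 min. cAMP accumulation was read by FRET (665/620 ratio), and EC50 was fitted from percent of control versus log compound concentration.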

[3] = Tag-Lite Adenosine A2A labeled cells, fluorescent ligand 12.5 nM, read-out: A2A_Ki
[4] = read-out: A2A_Ki, Tag-Lite Adenosine A2A labeled cells, fluorescent ligand 12.5 nM

Sequence of human adenosine A2B receptor (P29275 whole entry): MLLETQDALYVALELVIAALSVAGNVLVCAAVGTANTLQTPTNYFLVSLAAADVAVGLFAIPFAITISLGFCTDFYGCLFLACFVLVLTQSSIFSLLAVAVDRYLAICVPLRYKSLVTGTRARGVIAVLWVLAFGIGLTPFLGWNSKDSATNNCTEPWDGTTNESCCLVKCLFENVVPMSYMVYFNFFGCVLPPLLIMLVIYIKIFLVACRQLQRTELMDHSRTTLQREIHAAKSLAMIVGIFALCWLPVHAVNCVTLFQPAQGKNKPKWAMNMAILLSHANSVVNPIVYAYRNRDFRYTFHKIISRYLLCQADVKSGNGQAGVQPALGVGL
Sequence of Adenosine A2A (P29274 whole entry): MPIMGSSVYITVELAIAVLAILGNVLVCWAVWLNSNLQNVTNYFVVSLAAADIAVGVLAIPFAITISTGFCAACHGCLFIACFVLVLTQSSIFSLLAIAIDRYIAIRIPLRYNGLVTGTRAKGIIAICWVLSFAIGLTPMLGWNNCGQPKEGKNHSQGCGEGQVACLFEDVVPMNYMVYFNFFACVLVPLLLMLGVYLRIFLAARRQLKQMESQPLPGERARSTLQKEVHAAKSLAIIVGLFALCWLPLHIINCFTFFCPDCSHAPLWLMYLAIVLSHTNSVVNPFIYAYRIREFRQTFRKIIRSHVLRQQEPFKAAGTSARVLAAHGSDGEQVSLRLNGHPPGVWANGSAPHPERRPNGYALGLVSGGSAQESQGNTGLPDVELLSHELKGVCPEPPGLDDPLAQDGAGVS

Structure (SMILES) | Ki [1, 3] [nM] | EC50 ([2]; A2B_cAMP_EC50 (nM)) [nM] | Ki [1, 4] [nM] | Ki [1] [nM] | EC50 ([2]; read-out: A2B_cAMP_EC50) [nM]
CN1CCC(NCc2cccc(F)c2Cc2nc3c(N)nc(-c4cccc(C#N)c4)c(-c4ccncn4)n3n2)C1=O (centres unmarked) [Example 72, 3-(8-amino-2-(2-fluoro-6-(((1-methyl-2-oxopyrrolidin-3-yl)amino)methyl)benzyl)-5-(pyrimidin-4-yl)-[1,2,4]triazolo[1,5-a]pyrazin-6-yl)benzonitrile] | < 10 | < 10 |  |  | 
Cc1cccnc1COc1nc2c(N)nc(-c3cccc(C#N)c3)c(-c3ccncn3)n2n1 [Example 119, 3-(8-amino-2-((3-methylpyridin-2-yl)methoxy)-5-(pyrimidin-4-yl)-[1,2,4]triazolo[1,5-a]pyrazin-6-yl)benzonitrile] | < 10 | < 10 |  |  | 
Cc1ncoc1-c1c(-c2cccc(C#N)c2)nc(N)c2nc(C(N)c3c(F)cccc3F)nn12 (centres unmarked) [Example 77, 3-(8-amino-2-(amino(2,6-difluorophenyl)methyl)-5-(4-methyloxazol-5-yl)-[1,2,4]triazolo[1,5-a]pyrazin-6-yl)benzonitrile] | < 10 | < 10 |  |  | 
Cc1ncoc1-c1c(-c2cccc(C#N)c2)nc(N)c2nc(C(N)c3ccccc3F)nn12 (centres unmarked) [Example 80, 3-(8-amino-2-(amino(2-fluorophenyl)methyl)-5-(4-methyloxazol-5-yl)-[1,2,4]triazolo[1,5-a]pyrazin-6-yl)benzonitrile] | < 10 | < 10 |  |  | 
N#Cc1cccc(-c2nc(N)c3nc(C(O)c4c(F)cccc4F)nn3c2-c2ccc3nncn3c2)c1 (racemic) [Example 104, 3-(5-([1,2,4]triazolo[4,3-a]pyridin-6-yl)-8-amino-2-((2,6-difluorophenyl)(hydroxy)methyl)-[1,2,4]triazolo[1,5-a]pyrazin-6-yl)benzonitrile] | < 10 | 10 to 100 |  |  | 
N#Cc1cccc(-c2nc(N)c3nc(C(O)c4c(F)cccc4CN4CCCC4)nn3c2-c2ccncn2)c1 (single isomer, unassigned) [Example 111, 3-(8-amino-2-((2-fluoro-6-(pyrrolidin-1-ylmethyl)phenyl)(hydroxy)methyl)-5-(pyrimidin-4-yl)-[1,2,4]triazolo[1,5-a]pyrazin-6-yl)benzonitrile] |  | < 10 | < 10 |  | 
CN(C)C(=O)Cn1cc(-c2cccc(F)c2Cc2nc3c(N)nc(-c4cccc(C#N)c4F)cn3n2)cn1 [Example 114, 2-(4-(2-((8-amino-6-(3-cyano-2-fluorophenyl)-[1,2,4]triazolo[1,5-a]pyrazin-2-yl)methyl)-3-fluorophenyl)-1H-pyrazol-1-yl)-N,N-dimethylacetamide] | < 10 | 10 to 100 |  |  | 
CCN(C)C(=O)c1cc2c(N)nc(-c3cccc(C#N)c3)c(-c3ccncn3)n2n1 [Example 11, 4-Amino-6-(3-cyanophenyl)-N-ethyl-N-methyl-7-(pyrimidin-4-yl)pyrazolo[1,5-a]pyrazine-2-carboxamide] | < 10 | < 10 |  |  | 
Cc1ncoc1-c1c(-c2cccc(C#N)c2)nc(N)c2nc(Cc3c(F)cccc3CN3CC[C@@](C)(C(=O)O)C3)nn12 [Example 76, (R)-1-(2-((8-amino-6-(3-cyanophenyl)-5-(4-methyloxazol-5-yl)-[1,2,4]triazolo[1,5-a]pyrazin-2-yl)methyl)-3-fluorobenzyl)-3-methylpyrrolidine-3-carboxylic Acid] | < 10 | 10 to 100 |  |  | 
N#Cc1cccc(-c2nc(N)c3nc(Cc4ccccc4CN[C@H]4CCNC4=O)nn3c2-c2ccncn2)c1 [Example 75, (S)-3-(8-amino-2-(2-(((2-oxopyrrolidin-3-yl)amino)methyl)benzyl)-5-(pyrimidin-4-yl)-[1,2,4]triazolo[1,5-a]pyrazin-6-yl)benzonitrile] | < 10 | < 10 |  |  | 
N#Cc1cccc(-c2nc(N)c3nc(Cc4cccc5ocnc45)nn3c2-c2ccncn2)c1 [Example 63, 3-(8-amino-2-(benzo[d]oxazol-4-ylmethyl)-5-(pyrimidin-4-yl)-[1,2,4]triazolo[1,5-a]pyrazin-6-yl)benzonitrile] | < 10 | < 10 |  |  | 
N#Cc1cccc(-c2nc(N)c3nc(C(O)c4c(F)cccc4OC(F)F)nn3c2-c2ccncn2)c1 (single isomer, unassigned) [Example 97, 3-(8-amino-2-((2-(difluoromethoxy)-6-fluorophenyl)(hydroxy)methyl)-5-(pyrimidin-4-yl)-[1,2,4]triazolo[1,5-a]pyrazin-6-yl)benzonitrile] |  | < 10 |  | < 10 | 
CCOC(=O)Nc1nc2c(N)nc(-c3cccc(C#N)c3)cn2n1 [Example 14, Ethyl(8-amino-6-(3-cyanophenyl)-[1,2,4]triazolo[1,5-a]pyrazin-2-yl)carbamate] |  | > 1000 |  | 10 to 100 | 
Cn1cnc(S(=O)(=O)N2CCCC2Cc2nc3c(N)nc(-c4cccc(C#N)c4F)cn3n2)c1 (centres unmarked) [Example 90, 3-(8-amino-2-((1-((1-methyl-1H-imidazol-4-yl)sulfonyl)pyrrolidin-2-yl)methyl)-[1,2,4]triazolo[1,5-a]pyrazin-6-yl)-2-fluorobenzonitrile] | < 10 | 100 to 1000 |  |  | 
Cn1nc(-c2c(-c3cccc(C#N)c3)nc(N)c3nc(C(N)c4c(F)cccc4F)nn23)ccc1=O (centres unmarked) [Example 81, 3-(8-amino-2-(amino(2,6-difluorophenyl)methyl)-5-(1-methyl-6-oxo-1,6-dihydropyridazin-3-yl)-[1,2,4]triazolo[1,5-a]pyrazin-6-yl)benzonitrile] | < 10 | < 10 |  |  | 
Cn1ncc(NCc2cccc(F)c2Cc2nc3c(N)nc(-c4cccc(C#N)c4)c(-c4ccncn4)n3n2)n1 [Example 74, 3-(8-amino-2-(2-fluoro-6-(((2-methyl-2H-1,2,3-triazol-4-yl)amino)methyl)benzyl)-5-(pyrimidin-4-yl)-[1,2,4]triazolo[1,5-a]pyrazin-6-yl)benzonitrile] | < 10 | < 10 |  |  | 
Cc1cc(-c2c(-c3cccc(C#N)c3)nc(N)c3nc(C(O)c4c(F)cccc4F)nn23)cc(C)n1 (single isomer, unassigned) [Example 94, 3-(8-amino-2-((2,6-difluorophenyl)(hydroxy)methyl)-5-(2,6-dimethylpyridin-4-yl)-[1,2,4]triazolo[1,5-a]pyrazin-6-yl)benzonitrile] |  | 10 to 100 |  | < 10 | 
CCNC(=O)c1cc2c(N)nc(-c3cccc(C#N)c3)c(-c3ccc(=O)n(C)c3)n2n1 [Example 3, 4-Amino-6-(3-cyanophenyl)-N-ethyl-7-(1-methyl-6-oxo-1,6-dihydropyridin-3-yl)pyrazolo[1,5-a]pyrazine-2-carboxamide] | < 10 | 100 to 1000 |  |  | 
CCn1nccc1-c1c(-c2cccc(C#N)c2)nc(N)c2nc(C(O)c3c(F)cccc3F)nn12 (single isomer, unassigned) [Example 93, 3-(8-amino-2-((2,6-difluorophenyl)(hydroxy)methyl)-5-(1-ethyl-1H-pyrazol-5-yl)-[1,2,4]triazolo[1,5-a]pyrazin-6-yl)benzonitrile] |  |  | < 10 |  | < 10
N#Cc1cccc(-c2nc(N)c3cc(Nc4ccccc4)nn3c2-c2ccncc2)c1 [Example 25, 3-(4-Amino-2-(phenylamino)-7-(pyridin-4-yl)pyrazolo[1,5-a]pyrazin-6-yl)benzonitrile] | < 10 | 10 to 100 |  |  | 
Cc1cnccc1-c1c(-c2cccc(C#N)c2)nc(N)c2nc(C(O)c3c(F)cccc3F)nn12 (single isomer, unassigned) [Example 108, 3-(8-amino-2-((2,6-difluorophenyl)(hydroxy)methyl)-5-(3-methylpyridin-4-yl)-[1,2,4]triazolo[1,5-a]pyrazin-6-yl)benzonitrile] |  | < 10 |  | < 10 | 
Cc1ncoc1-c1c(-c2cccc(C#N)c2F)nc(N)c2nc(Cc3ccccn3)nn12 [Example 86, 3-(8-amino-5-(4-methyloxazol-5-yl)-2-(pyridin-2-ylmethyl)-[1,2,4]triazolo[1,5-a]pyrazin-6-yl)-2-fluorobenzonitrile] | < 10 | < 10 |  |  | 
